Experimental data reported in patent publication US20200079758A1, “[4-(PHENYLSULFONYL)PIPERAZIN-1-YL](1H-1,2,3-TRIAZOL-4-YL)METHANONES” (priority 2016, published 2020).
pIC50: −log10 of the molar value.

Biological target: T1, recombinant human AKR1C3 (Homo sapiens, UniProt P42330)
T1 construct: GST (cleaved yes); made in house; host or cells: E. coli
T1 sequence (P42330 1-323): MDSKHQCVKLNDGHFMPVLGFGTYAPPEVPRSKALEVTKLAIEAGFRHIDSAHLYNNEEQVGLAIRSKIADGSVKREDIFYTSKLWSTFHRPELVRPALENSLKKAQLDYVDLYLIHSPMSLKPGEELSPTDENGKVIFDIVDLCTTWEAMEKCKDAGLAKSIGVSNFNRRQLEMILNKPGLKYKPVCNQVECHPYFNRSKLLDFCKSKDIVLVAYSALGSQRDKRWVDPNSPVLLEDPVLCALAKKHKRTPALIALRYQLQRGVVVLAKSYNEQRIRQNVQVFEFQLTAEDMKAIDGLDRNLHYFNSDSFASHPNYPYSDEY
Experiment: AKR1C3-inhibitory activity assay (generation of Coumberol from Coumberone)
Type: biochemical
Details: Coumberone 0.3 μM, NADPH 10 μM, 22° C., typically 90 min, average or median values
Procedure: The AKR1C3-inhibitory activity of the substances of the present invention was measured in the AKR1C3 assay described in the paragraphs below.
Essentially, the enzyme activity is measured by quantification of the generation of Coumberol from Coumberone (Halim et al. J. AM. CHEM. SOC. 2008, 130:14123-14128 and Yee et al. Proc. Natl. Acad. Sci. USA 2006, 103:13304-13309). In this test, the increase of the highly fluorescent Coumberol by NADPH- (nicotinamide adenine dinucleotide phosphate)-dependent reduction of the non-fluorescent Coumberone by AKR1C3 was determined.
The enzyme used was recombinant human AKR1C3 (Aldo-keto reductase family 1 member C3; GenBank Accession No. NM_003739). This was expressed in E. coli as GST (glutathione S transferase) fusion protein and purified by glutathione Sepharose affinity chromatography. The GST was removed by digestion with thrombin and subsequent size exclusion chromatography (Dufort, I., Rheault, P., Huang, X F., Soucy, P., and Luu-The, V., Endocrinology 140, 568-574 (1999)).
For the assay, 50 nl of a 100-fold concentrated solution of the test substance in DMSO were pipetted into a black low-volume 384-well microtiter plate (Greiner Bio-One, Frickenhausen, Germany), 2.5 μl of a solution of AKR1C3 in assay buffer [50 mM potassium phosphate buffer pH 7, 1 mM DTT, 0.0022% (w/v) Pluronic F-127, 0.01% BSA (w/v) and protease inhibitor cocktail (Complete, EDTA-free Protease Inhibitor Cocktail from Roche)] were added and the mixture was incubated for 15 min to allow pre-binding of the substances to the enzyme prior to the enzyme reaction. The enzyme reaction was then started by addition of 2.5 μl of a solution of NADPH (20 μM→final concentration in 5 μl of assay volume is 10 μM) and Coumberone (0.6 μM→final concentration in 5 μl of assay volume is 0.3 μM) in assay buffer, and the resulting mixture was incubated at 22° C. for the reaction time of typically 90 min. The concentration of the AKR1C3 and the reaction time was adapted to the respective activity of the enzyme preparation and adjusted such that the assay was carried out in the linear range. Typical AKR1C3 concentrations were in the region of 1 nM. The reaction was stopped by addition of 2.5 μl of a stop solution consisting of 3 μM EM-1404 as inhibitor (U.S. Pat. No. 6,541,463) in 50 mM HEPES pH7.5 (3 μM EM-1404→final concentration in 7.5 μl of assay volume is 1 μM). The fluorescence of the Coumberole was then measured at 520 nm (excitation at 380 nm) using a suitable measuring instrument (Pherastar from BMG Labtechnologies). The intensity of the fluorescence was used as a measure of the amount of Coumberole formed and thus of the enzyme activity of AKR1C3. The data were normalized (enzyme reaction without inhibitor=0% inhibition; all other assay components, but no enzyme=100% inhibition).

| pIC50 | Compound |
| --- | --- |
| 8.70 | C[C@@H]1CN(S(=O)(=O)c2cc(Cl)ccc2Cl)C[C@H](C)N1C(=O)c1c[nH]nn1 [Example 43, {(2R,6S)-4-[(2,5-dichlorophenyl)sulfonyl]-2,6-dimethylpiperazin-1-yl}(1H-1,2,3-triazol-4-yl)methanone] |
| 7.32 | C[C@@H]1CN(S(=O)(=O)c2ccc(F)cc2)C[C@H](C)N1C(=O)c1c[nH]nn1 [Example 44, {(2R,6S)-4-[(4-fluorophenyl)sulfonyl]-2,6-dimethylpiperazin-1-yl}(1H-1,2,3-triazol-4-yl)methanone] |
| 9.00 | Cc1ccccc1S(=O)(=O)N1C[C@@H](C)N(C(=O)c2c[nH]nn2)[C@@H](C)C1 [Example 45, {(2R,6S)-2,6-dimethyl-4-[(2-methylphenyl)sulfonyl]piperazin-1-yl}(1H-1,2,3-triazol-4-yl)methanone] |
| 8.70 | C[C@@H]1CN(S(=O)(=O)c2ccccc2Cl)C[C@H](C)N1C(=O)c1c[nH]nn1 [Example 46, {(2R,6S)-4-[(2-chlorophenyl)sulfonyl]-2,6-dimethylpiperazin-1-yl}(1H-1,2,3-triazol-4-yl)methanone] |
| 8.70 | C[C@@H]1CN(S(=O)(=O)c2ccccc2C(F)(F)F)C[C@H](C)N1C(=O)c1c[nH]nn1 [Example 47, [(2R,6S)-2,6-dimethyl-4-{[2-(trifluoromethyl)phenyl]sulfonyl}piperazin-1-yl](1H-1,2,3-triazol-4-yl)methanone] |
| 8.52 | C[C@@H]1CN(S(=O)(=O)c2cccc(Cl)c2)C[C@H](C)N1C(=O)c1c[nH]nn1 [Example 48, {(2R,6S)-4-[(3-chlorophenyl)sulfonyl]-2,6-dimethylpiperazin-1-yl}(1H-1,2,3-triazol-4-yl)methanone] |
| 8.22 | Cc1cccc(S(=O)(=O)N2C[C@@H](C)N(C(=O)c3c[nH]nn3)[C@@H](C)C2)c1 [Example 49, {(2R,6S)-2,6-dimethyl-4-[(3-methylphenyl)sulfonyl]piperazin-1-yl}(1H-1,2,3-triazol-4-yl)methanone] |
| 8.52 | C[C@@H]1CN(S(=O)(=O)c2cccc(Br)c2)C[C@H](C)N1C(=O)c1c[nH]nn1 [Example 50, {(2R,6S)-4-[(3-bromophenyl)sulfonyl]-2,6-dimethylpiperazin-1-yl}(1H-1,2,3-triazol-4-yl)methanone] |
| 8.22 | C[C@@H]1CN(S(=O)(=O)c2ccccc2F)C[C@H](C)N1C(=O)c1c[nH]nn1 [Example 51, {(2R,6S)-4-[(2-fluorophenyl)sulfonyl]-2,6-dimethylpiperazin-1-yl}(1H-1,2,3-triazol-4-yl)methanone] |
| 8.05 | C[C@@H]1CN(S(=O)(=O)c2cccc(F)c2)C[C@H](C)N1C(=O)c1c[nH]nn1 [Example 52, {(2R,6S)-4-[(3-fluorophenyl)sulfonyl]-2,6-dimethylpiperazin-1-yl}(1H-1,2,3-triazol-4-yl)methanone] |
| 8.05 | C[C@@H]1CN(S(=O)(=O)c2c(F)cccc2F)C[C@H](C)N1C(=O)c1c[nH]nn1 [Example 53, {(2R,6S)-4-[(2,6-difluorophenyl)sulfonyl]-2,6-dimethylpiperazin-1-yl}(1H-1,2,3-triazol-4-yl)methanone] |
| 6.93 | C[C@@H]1CN(S(=O)(=O)c2cccc(C#N)c2)C[C@H](C)N1C(=O)c1c[nH]nn1 [Example 54, 3-{[(3R,5S)-3,5-dimethyl-4-(1H-1,2,3-triazol-4-ylcarbonyl)piperazin-1-yl]sulfonyl}benzonitrile] |
| 8.00 | C[C@@H]1CN(S(=O)(=O)c2cccc(Cl)c2F)C[C@H](C)N1C(=O)c1c[nH]nn1 [Example 55, {(2R,6S)-4-[(3-chloro-2-fluorophenyl)sulfonyl]-2,6-dimethylpiperazin-1-yl}(1H-1,2,3-triazol-4-yl)methanone] |
| 7.89 | C[C@@H]1CN(S(=O)(=O)c2cc(F)cc(F)c2)C[C@H](C)N1C(=O)c1c[nH]nn1 [Example 56, {(2R,6S)-4-[(3,5-difluorophenyl)sulfonyl]-2,6-dimethylpiperazin-1-yl}(1H-1,2,3-triazol-4-yl)methanone] |
| 8.00 | C[C@@H]1CN(S(=O)(=O)c2cccc(C(F)(F)F)c2)C[C@H](C)N1C(=O)c1c[nH]nn1 [Example 57, [(2R,6S)-2,6-dimethyl-4-{[3-(trifluoromethyl)phenyl]sulfonyl}piperazin-1-yl](1H-1,2,3-triazol-4-yl)methanone] |
| 8.70 | C[C@@H]1CN(S(=O)(=O)c2cc(Cl)cc(Cl)c2)C[C@H](C)N1C(=O)c1c[nH]nn1 [Example 58, {(2R,6S)-4-[(3,5-dichlorophenyl)sulfonyl]-2,6-dimethylpiperazin-1-yl}(1H-1,2,3-triazol-4-yl)methanone] |
| 8.40 | C[C@@H]1CN(S(=O)(=O)c2cc(F)ccc2F)C[C@H](C)N1C(=O)c1c[nH]nn1 [Example 59, {(2R,6S)-4-[(2,5-difluorophenyl)sulfonyl]-2,6-dimethylpiperazin-1-yl}(1H-1,2,3-triazol-4-yl)methanone] |
| 7.33 | C[C@@H]1CN(S(=O)(=O)c2ccc(F)c(F)c2)C[C@H](C)N1C(=O)c1c[nH]nn1 [Example 60, {(2R,6S)-4-[(3,4-difluorophenyl)sulfonyl]-2,6-dimethylpiperazin-1-yl}(1H-1,2,3-triazol-4-yl)methanone] |
| 8.40 | C[C@@H]1CN(C(=O)c2cnn[nH]2)[C@@H](C)CN1S(=O)(=O)c1ccc(Br)cc1 [Example 61, {(2S,5R)-4-[(4-bromophenyl)sulfonyl]-2,5-dimethylpiperazin-1-yl}(1H-1,2,3-triazol-5-yl)methanone] |
| 7.06 | CC(=O)Nc1ccc(S(=O)(=O)N2C[C@H](C)N(C(=O)c3cnn[nH]3)C[C@H]2C)cc1 [Example 62, N-(4-{[(2R,5S)-2,5-dimethyl-4-(1H-1,2,3-triazol-5-ylcarbonyl)piperazin-1-yl]sulfonyl}phenyl)acetamide] |
| 8.52 | C[C@@H]1CN(C(=O)c2cnn[nH]2)[C@@H](C)CN1S(=O)(=O)c1ccc(Cl)cc1 [Example 63, {(2S,5R)-4-[(4-chlorophenyl)sulfonyl]-2,5-dimethylpiperazin-1-yl}(1H-1,2,3-triazol-5-yl)methanone] |
| 6.94 | C[C@@H]1CN(C(=O)c2cnn[nH]2)[C@@H](C)CN1S(=O)(=O)Cc1ccccc1 [Example 64, [(2S,5R)-4-(benzylsulfonyl)-2,5-dimethylpiperazin-1-yl](1H-1,2,3-triazol-5-yl)methanone] |
| 8.70 | C[C@@H]1CN(C(=O)c2cnn[nH]2)[C@@H](C)CN1S(=O)(=O)c1cccc2ccccc12 [Example 65, [(2S,5R)-2,5-dimethyl-4-(naphthalen-1-ylsulfonyl)piperazin-1-yl](1H-1,2,3-triazol-5-yl)methanone] |
| 8.40 | C[C@@H]1CN(C(=O)c2cnn[nH]2)[C@@H](C)CN1S(=O)(=O)c1ccc(F)cc1 [Example 66, {(2S,5R)-4-[(4-fluorophenyl)sulfonyl]-2,5-dimethylpiperazin-1-yl}(1H-1,2,3-triazol-5-yl)methanone] |
| 8.15 | COc1ccc(S(=O)(=O)N2C[C@H](C)N(C(=O)c3cnn[nH]3)C[C@H]2C)cc1 [Example 67, {(2S,5R)-4-[(4-methoxyphenyl)sulfonyl]-2,5-dimethylpiperazin-1-yl}(1H-1,2,3-triazol-5-yl)methanone] |
| 8.15 | C[C@@H]1CN(C(=O)c2cnn[nH]2)[C@@H](C)CN1S(=O)(=O)c1cccc2cccnc12 [Example 68, [(2S,5R)-2,5-dimethyl-4-(quinolin-8-ylsulfonyl)piperazin-1-yl](1H-1,2,3-triazol-5-yl)methanone] |
